Laboratory results as given in patent US7956053B2, “Inhibitors of tyrosine kinases” (Novartis AG, priority 2002, dated 2011).

How the values were obtained:
[1] = biological target: KDR (Homo sapiens, UniProt P35968); assay: Enzymatic KDR in vitro inhibition; type: biochemical
Protocol: Test for activity against VEGF-receptor tyrosine kinase. The test is conducted using Flt-1 VEGF-receptor tyrosine kinase. The detailed procedure is as follows: 30 μL kinase solution (10 ng of the kinase domain of Flt-1, Shibuya et al., Oncogene 5, 519-24 [1990]) in 20 mM Tris.HCl pH 7.5, 3 mM manganese dichloride (MnCl2), 3 mM magnesium chloride (MgCl2), 10 μM sodium vanadate, 0.25 mg/mL polyethylenglycol (PEG) 20000, 1 mM dithiothreitol and 3 μg/μL poly(Glu,Tyr) 4:1 (Sigma, Buchs, Switzerland), 8 μM [^33P]-ATP (0.2 μCi), 1% DMSO, and 0 to 100 μM of the compound to be tested are incubated together for 10 minutes at room temperature. The reaction is then terminated by the addition of 10 μL 0.25 M ethylenediaminetetraacetate (EDTA) pH 7. Using a multichannel dispenser (LAB SYSTEMS, USA), an aliquot of 20 μL is applied to a PVDF (=polyvinyl difluoride) Immobilon P membrane (Millipore, Bedford, USA), through a Gibco-BRL microtiter filter manifold and connected to a vacuum. Following complete elimination of the liquid, the membrane is washed 4 times successively in a bath containing 0.5% phosphoric acid (H3PO4) and once with ethanol, incubated for 10 minutes each time while shaking, then mounted in a Hewlett Packard TopCount Manifold and the radioactivity measured after the addition of 10 μL Microscint® (β-scintillation counter liquid). IC50-values are determined by linear regression analysis of the percentages for the inhibition of each compound in at least four concentrations (as a rule 0.01, 0.1, 1.0 and 10 μmol).
(§1) Enzymatic (c-Abl, KDR, Flt3) in vitro inhibition data are presented as % inhibition at 10 μM. The measurements are made as described above in the general description.

[2] = biological target: T1, c-Abl (Homo sapiens, UniProt P00519); assay: Test for activity against c-Abl protein tyrosine kinase (filter binding assay); type: biochemical
T1 construct: The His-tagged kinase domain of c-Abl is cloned and expressed in the baculovirus/Sf9 system; His; made in house; host or cells: baculovirus/Sf9
T1 sequence (P00519 242-493 limits assumed): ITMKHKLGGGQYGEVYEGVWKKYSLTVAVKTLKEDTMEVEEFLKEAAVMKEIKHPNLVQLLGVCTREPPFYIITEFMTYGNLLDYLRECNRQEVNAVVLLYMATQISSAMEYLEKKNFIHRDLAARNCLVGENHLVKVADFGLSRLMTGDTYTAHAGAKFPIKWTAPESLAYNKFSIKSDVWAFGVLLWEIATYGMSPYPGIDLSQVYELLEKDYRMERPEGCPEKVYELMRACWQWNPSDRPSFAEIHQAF
Protocol: Test for activity against c-Abl protein tyrosine kinase. The test is conducted as a filter binding assay as follows: The His-tagged kinase domain of c-Abl is cloned and expressed in the baculovirus/Sf9 system as described by Bhat et al., J Biol. Chem. 272, 16170-5 (1997). A protein of 37 kD (c-Abl kinase) is purified by a two-step procedure over a Cobalt metal chelate column followed by an anion exchange column with a yield of 1-2 mg/L of Sf9 cells. The purity of the c-Abl kinase is >90% as judged by SDS-PAGE after Coomassie blue staining. The assay contains: c-Abl kinase (50 ng), 20 mM Tris.HCl, pH 7.5, 10 mM MgCl2, 10 μM Na3VO4, 1 mM DTT and 0.06 μCi/assay [γ^33 P]-ATP (5 μM ATP) using 30 μg/mL poly-Ala,Glu,Lys,Tyr-6:2:5:1 (Poly-AEKY, Sigma P1152) in the presence of 1% DMSO, total volume of 30 μL. Reactions are terminated by adding 10 μL of 250 mM EDTA, and 30 μL of the reaction mixture is transferred onto Immobilon-PVDF membrane (Millipore, Bedford, Mass., USA) previously soaked for 5 min with methanol, rinsed with water, then soaked for 5 min with 0.5% H3PO4 and mounted on vacuum manifold with disconnected vacuum source. After spotting all samples, vacuum is connected and each well rinsed with 200 μL 0.5% H3PO4. Membranes are removed and washed on a shaker with 0.5% H3PO4 (4 times) and once with ethanol. Membranes are counted after drying at ambient temperature, mounting in Packard TopCount 96-well frame, and addition of 10 μL/well of Microscint™ (Packard).
as §1

Sequence of KDR (P35968 20-1356): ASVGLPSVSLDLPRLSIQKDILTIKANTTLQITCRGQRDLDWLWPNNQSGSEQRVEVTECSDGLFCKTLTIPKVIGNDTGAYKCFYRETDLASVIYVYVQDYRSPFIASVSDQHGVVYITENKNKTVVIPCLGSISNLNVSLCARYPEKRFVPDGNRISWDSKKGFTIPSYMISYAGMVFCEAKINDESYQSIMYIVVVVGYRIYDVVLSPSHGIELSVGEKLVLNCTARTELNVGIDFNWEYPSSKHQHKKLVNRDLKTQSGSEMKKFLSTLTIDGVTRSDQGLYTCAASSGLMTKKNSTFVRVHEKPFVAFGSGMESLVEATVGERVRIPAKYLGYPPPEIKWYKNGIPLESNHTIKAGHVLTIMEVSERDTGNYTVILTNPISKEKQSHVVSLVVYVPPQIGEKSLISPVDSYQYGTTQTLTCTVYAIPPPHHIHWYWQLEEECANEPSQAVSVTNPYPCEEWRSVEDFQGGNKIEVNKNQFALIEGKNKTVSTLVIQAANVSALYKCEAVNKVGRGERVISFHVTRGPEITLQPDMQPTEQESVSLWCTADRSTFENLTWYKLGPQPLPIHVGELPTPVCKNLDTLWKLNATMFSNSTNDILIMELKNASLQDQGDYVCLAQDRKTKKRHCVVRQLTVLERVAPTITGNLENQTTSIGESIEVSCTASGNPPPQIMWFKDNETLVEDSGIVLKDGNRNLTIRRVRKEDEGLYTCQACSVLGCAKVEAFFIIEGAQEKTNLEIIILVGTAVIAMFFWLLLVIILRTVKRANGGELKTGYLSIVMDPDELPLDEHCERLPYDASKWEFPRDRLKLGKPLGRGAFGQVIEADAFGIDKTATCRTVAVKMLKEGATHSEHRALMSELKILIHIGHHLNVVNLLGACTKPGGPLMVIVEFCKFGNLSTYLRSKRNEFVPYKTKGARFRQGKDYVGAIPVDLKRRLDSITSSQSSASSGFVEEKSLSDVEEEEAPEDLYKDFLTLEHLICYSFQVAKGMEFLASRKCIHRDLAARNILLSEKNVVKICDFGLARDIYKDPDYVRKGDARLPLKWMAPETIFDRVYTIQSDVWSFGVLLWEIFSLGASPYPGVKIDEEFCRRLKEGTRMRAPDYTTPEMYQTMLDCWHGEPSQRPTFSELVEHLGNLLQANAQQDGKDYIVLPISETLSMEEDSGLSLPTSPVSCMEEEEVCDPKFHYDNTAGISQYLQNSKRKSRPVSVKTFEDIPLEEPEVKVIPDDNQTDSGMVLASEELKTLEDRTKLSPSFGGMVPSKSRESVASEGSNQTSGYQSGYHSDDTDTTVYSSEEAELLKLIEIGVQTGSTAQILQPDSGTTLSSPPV

Row | inhibition at 10 µM [1] [%] | inhibition at 10 µM [2] [%] | Structure (SMILES)
1 | 51 | 97 | Cc1ccc(C(=O)N[C@H](C)C(=O)OC(C)(C)C)cc1Nc1nccc(-c2cccnc2)n1 [Example 33, N-[4-Methyl-3-[[4-(3-pyridinyl)-2-pyrimidinyl]amino]benzoyl]-(D)-alanine 1,1-dimethylethyl ester]
2 | 33 | 22 | Cc1ccc(C(=O)NCCc2cnc(O)nc2O)cc1Nc1nccc(-c2cccnc2)n1 [Example 12, N-[2-(2,4-Dihydroxy-5-pyrimidinyl)ethyl]-4-methyl-3-[[4-(3-pyridinyl)-2-pyrimidinyl]amino]benzamide]
3 | 62 | 56 | Cc1ccc(C(=O)NCC2CC2)cc1Nc1nccc(-c2cccnc2)n1 [Example 18, N-(Cyclopropylmethyl)-4-methyl-3-[[4-(3-pyridinyl)-2-pyrimidinyl]amino]-benzamide]
4 | 46 | 77 | Cc1ccc(C(=O)NCCc2ccccn2)cc1Nc1nccc(-c2cccnc2)n1 [Example 4, 4-Methyl-N-[2-(2-pyridinyl)ethyl]-3-[[4-(3-pyridinyl)-2-pyrimidinyl]amino]-benzamide]
5 | 37 | 72 | Cc1ccc(C(=O)NCC(c2ccccc2)c2ccccc2)cc1Nc1nccc(-c2cccnc2)n1 [Example 49, N-(2,2-Diphenylethyl)-4-methyl-3-[[4-(3-pyridinyl)-2-pyrimidinyl]amino]-benzamide]
6 | 44 | 40 | CCOCCNC(=O)c1ccc(C)c(Nc2nccc(-c3cccnc3)n2)c1 [Example 56, N-(2-Ethoxyethyl)-4-methyl-3-[[4-(3-pyridinyl)-2-pyrimidinyl]amino]benzamide]
7 | 26 | 40 | Cc1ccc(NC(=O)c2ccc(C)c(Nc3nccc(-c4cccnc4)n3)c2)nc1 [Example 58, 4-Methyl-N-(5-methyl-2-pyridinyl)-3-[[4-(3-pyridinyl)-2-pyrimidinyl]amino]benzamide]
8 | 59 | 56 | CCOC(=O)C1CCN(Cc2cccc(NC(=O)c3ccc(C)c(Nc4nccc(-c5cccnc5)n4)c3)c2)CC1 [Example 64, 1-[[3-[[4-Methyl-3-[[4-(3-pyridinyl)-2-pyrimidinyl]amino]benzoyl]amino]phenyl]-methyl]-4-piperidinecarboxylic acid ethyl ester]
9 | 23 | 67 | Cc1ccc(C(=O)NCCN(C(C)C)C(C)C)cc1Nc1nccc(-c2cccnc2)n1 [Example 66, N-[2-[bis(1-Methylethyl)amino]ethyl]-4-methyl-3-[[4-(3-pyridinyl)-2-pyrimidinyl]-amino]benzamide]
10 | 82 | 74 | Cc1ccc(C(=O)NCCCN(C)c2ccccc2)cc1Nc1nccc(-c2cccnc2)n1 [Example 63, 4-Methyl-N-[3-(methylphenylamino)propyl]-3-[[4-(3-pyridinyl)-2-pyrimidinyl]-amino]benzamide]
11 | 77 | 57 | COc1ccc(N2CCN(C(=O)c3ccc(C)c(Nc4nccc(-c5cccnc5)n4)c3)CC2)cc1 [Example 36, 1-(4-Methoxyphenyl)-4-[4-methyl-3-[[4-(3-pyridinyl)-2-pyrimidinyl]amino]-benzoyl]piperazine]
12 | 22 | 56 | Cc1ccc(C(=O)NCCCN2CCCC2=O)cc1Nc1nccc(-c2cccnc2)n1 [Example 20, 4-Methyl-N-[3-(2-oxo-1-pyrrolidinyl)propyl]-3-[[4-(3-pyridinyl)-2-pyrimidinyl]amino]benzamide]
13 | 65 | 95 | Cc1ccc(C(=O)NCC(=O)OC(C)(C)C)cc1Nc1nccc(-c2cccnc2)n1 [Example 61, N-[4-Methyl-3-[[4-(3-pyridinyl)-2-pyrimidinyl]amino]benzoyl]-glycine 1,1-dimethylethyl ester]
14 | 36 | 79 | Cc1ccc(C(=O)Nc2cccc(C(=O)c3ccccc3)c2)cc1Nc1nccc(-c2cccnc2)n1 [Example 60, N-(3-Benzoylphenyl)-4-methyl-3-[[4-(3-pyridinyl)-2-pyrimidinyl]amino]benzamide]
15 | 61 | 34 | COCCN(CCOC)C(=O)c1ccc(C)c(Nc2nccc(-c3cccnc3)n2)c1 [Example 45, N,N-bis(2-Methoxyethyl)-4-methyl-3-[[4-(3-pyridinyl)-2-pyrimidinyl]amino]benzamide]
16 | 63 | 37 | CCOC(=O)N1CCN(C(=O)c2ccc(C)c(Nc3nccc(-c4cccnc4)n3)c2)CC1 [Example 43, 4-[4-Methyl-3-[[4-(3-pyridinyl)-2-pyrimidinyl]amino]benzoyl]-1-piperazinecarboxylic acid ethyl ester]
17 | 52 | 13 | Cc1ccc(C(=O)N2CCN(CC(=O)N3CCOCC3)CC2)cc1Nc1nccc(-c2cccnc2)n1 [Example 41, 4-{{4-[4-Methyl-3-[[4-(3-pyridinyl)-2-pyrimidinyl]amino]benzoyl]-1-piperazinyl}acetyl}morpholine]
18 | 74 | 64 | Cc1ccc(C(=O)N2CCN(Cc3ccccc3)CC2)cc1Nc1nccc(-c2cccnc2)n1 [Example 39, 1-[4-Methyl-3-[[4-(3-pyridinyl)-2-pyrimidinyl]amino]benzoyl]-4-(phenylmethyl)-piperazine]
19 | 89 | 73 | Cc1ccc(C(=O)N2CCC(NC(=O)c3ccccc3)CC2)cc1Nc1nccc(-c2cccnc2)n1 [Example 34, N-[1-[4-Methyl-3-[[4-(3-pyridinyl)-2-pyrimidinyl]amino]benzoyl]-4-piperidinyl]benzamide]
20 | 96 | 99 | Cc1ccc(C(=O)NCc2cc(C(C)(C)O)cc(C(F)(F)F)c2)cc1Nc1nccc(-c2cccnc2)n1 [Example 68, 4-Methyl-3-[[4-(3-pyridinyl)-2-pyrimidinyl]amino]-N-[[3-[(1-hydroxy-1-methyl-ethyl)]-5-(1,1,1-trifluoromethyl)phenyl]methyl]benzamide]
21 | 37 | 57 | Cc1ccc(C(=O)NCCCO)cc1Nc1nccc(-c2cccnc2)n1 [Example 30, N-(3-Hydroxypropyl)-4-methyl-3-[[4-(3-pyridinyl)-2-pyrimidinyl]amino]benzamide]
22 | 52 | 92 | Cc1ccc(C(=O)NC(c2ccccc2)c2ccccc2)cc1Nc1nccc(-c2cccnc2)n1 [Example 51, N-(Diphenylmethyl)-4-methyl-3-[[4-(3-pyridinyl)-2-pyrimidinyl]amino]benzamide]
23 | 71 | 66 | Cc1ccc(C(=O)N2CCN(c3ccccn3)CC2)cc1Nc1nccc(-c2cccnc2)n1 [Example 3, 1-[4-Methyl-3-[[4-(3-pyridinyl)-2-pyrimidinyl]amino]benzoyl]-4-(2-pyridinyl)piperazine]
24 | 56 | 32 | Cc1ccc(C(=O)N2CCN(CC(=O)N3CCCC3)CC2)cc1Nc1nccc(-c2cccnc2)n1 [Example 42, 1-[4-Methyl-3-[[4-(3-pyridinyl)-2-pyrimidinyl]amino]benzoyl]-4-[2-oxo-2-(1-pyrrolidinyl)ethyl]piperazine]
